In BindingDB's records for doi:10.1016/s0960-894x(98)00316-3 (Nippon Roche Research Center, 1998) one finds IC50 data, which are given here for seven compounds.

The target of the experiment is Lanosterol 14-alpha demethylase (Candida albicans) (UniProt P10613). Kind of experiment: In vitro inhibition of cytochrome P450 lanosterol C14 demethylase in Candida albicans CY1005.
Lanosterol 14-alpha demethylase (Candida albicans), sequence (P10613 whole entry, looked up): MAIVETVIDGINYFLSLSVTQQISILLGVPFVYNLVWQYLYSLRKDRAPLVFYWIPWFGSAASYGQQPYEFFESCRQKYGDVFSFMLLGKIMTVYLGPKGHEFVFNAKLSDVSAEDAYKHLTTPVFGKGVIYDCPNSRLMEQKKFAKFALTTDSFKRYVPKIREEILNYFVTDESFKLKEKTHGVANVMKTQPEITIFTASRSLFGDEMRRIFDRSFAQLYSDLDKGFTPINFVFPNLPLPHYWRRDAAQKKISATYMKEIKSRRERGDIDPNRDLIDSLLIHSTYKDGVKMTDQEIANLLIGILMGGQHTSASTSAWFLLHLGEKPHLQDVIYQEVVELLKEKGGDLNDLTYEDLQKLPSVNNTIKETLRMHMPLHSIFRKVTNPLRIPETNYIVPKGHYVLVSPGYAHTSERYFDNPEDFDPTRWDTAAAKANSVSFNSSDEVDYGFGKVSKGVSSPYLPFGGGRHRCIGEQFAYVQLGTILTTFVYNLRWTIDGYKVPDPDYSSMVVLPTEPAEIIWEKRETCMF
For `CCc1ccc(CC[C@@H]2CCC(C)(C)C(OCCO)[C@H]2Cn2cncn2)cc1` (some centres not stated), the IC50 (as a rule, the concentration needed to halve the response being measured) came out at 83 nM.

The compound `COC1[C@@H](Cn2cncn2)[C@H](COc2ccc(OC(F)(F)F)cc2)CCC1(C)C` (some centres not stated) registered an IC50 of 118 nM. For `CO/N=C1\[C@@H](Cn2cncn2)[C@H](COc2ccc(OC(F)(F)F)cc2)CCC1(C)C` the value was 56.3 nM; for `CC1(C)CC[C@@H](COc2ccc(OC(F)(F)F)cc2)[C@H](Cn2cncn2)C1OCCO` (some centres not stated), 22.5 nM; for `CC1(C)CC[C@@H](COc2ccc(OC(F)(F)F)cc2)[C@H](Cn2cncn2)/C1=N\O`, 130 nM. In turn, `CCc1ccc(CC[C@@H]2CCC(C)(C)/C(=N/OC)[C@H]2Cn2cncn2)cc1` gave an IC50 of 86.8 nM.

Compound `CCc1ccc(CC[C@@H]2CCC(C)(C)/C(=N/O)[C@H]2Cn2cncn2)cc1` had an IC50 of 73.3 nM.
